Two compounds from patent US9915647B2 (priority 2011, dated 2018) can be followed below.

The subject of this assay is INS1E cells. Format: cell-based, rat.

Consider `C[C@@H]1CC[C@@]2(OC1)O[C@H]1[C@@H](O)[C@H]3[C@@H]4CC[C@H]5C[C@@H](O[C@@H]6O[C@H](CO)[C@H](O[C@@H]7O[C@H](CO)[C@@H](O)[C@H](O[C@@H]8OC[C@@H](O)[C@H](O)[C@H]8O)[C@H]7O[C@@H]7O[C@H](CO)[C@H](O)[C@H](O[C@@H]8O[C@H](CO)[C@@H](O)[C@H](O)[C@H]8O)[C@H]7O)[C@H](O)[C@H]6O)[C@H](O)C[C@]5(C)[C@H]4CC[C@]3(C)[C@H]1[C@@H]2C` [digitonin], for which the “digitonin concentration giving maximal and sustained ADP-stimulated respiration” value worked out at 0.01%.
Regarding `CC[C@H]1/C=C/C=C/C[C@@H](C)[C@H](O)[C@@](C)(O)C(=O)[C@@H](C)[C@H](O)[C@@H](C)C(=O)[C@@H](C)[C@H](O)[C@@H](C)/C=C/C(=O)O[C@@H]2[C@H](C)[C@H](CC1)O[C@]1(CC[C@H](C)[C@H](C[C@@H](C)O)O1)[C@H]2C` [oligomycin], the “portion of ADP stimulated respiration that is oligomycin sensitive” value is given as around 75%.
